Assay results taken from ChEMBL document CHEMBL4630901 (2021).

Assays:
[1] = biological target: Sigma non-opioid intracellular receptor 1 (Homo sapiens) (UniProt Q99720); settings: Compound concentration 10.0 uM
[2] = biological target: B1 bradykinin receptor (Homo sapiens) (UniProt P46663); assay: Inhibition of Bradykinin B1 at 10 µM in the Eurofins-Panlabs radioligand binding assay (Eurofins_assay_212510); settings: Compound concentration 10.0 uM
Oryctolagus cuniculus = organism: Oryctolagus cuniculus; assay: Inhibition of Purinergic P2X at 10 µM in the Eurofins-Panlabs radioligand binding assay (Eurofins_assay_268700); type: protein assay; settings: Compound concentration 10.0 uM
[3] = biological target: T1, Prostaglandin D2 receptor 2 (Homo sapiens) (UniProt Q9Y5Y4); assay: Prostanoid CRTH2 Eurofins-Panlabs radioligand binding assay; parameters: ligand concentration 1 nM
T1 sequence (whole entry): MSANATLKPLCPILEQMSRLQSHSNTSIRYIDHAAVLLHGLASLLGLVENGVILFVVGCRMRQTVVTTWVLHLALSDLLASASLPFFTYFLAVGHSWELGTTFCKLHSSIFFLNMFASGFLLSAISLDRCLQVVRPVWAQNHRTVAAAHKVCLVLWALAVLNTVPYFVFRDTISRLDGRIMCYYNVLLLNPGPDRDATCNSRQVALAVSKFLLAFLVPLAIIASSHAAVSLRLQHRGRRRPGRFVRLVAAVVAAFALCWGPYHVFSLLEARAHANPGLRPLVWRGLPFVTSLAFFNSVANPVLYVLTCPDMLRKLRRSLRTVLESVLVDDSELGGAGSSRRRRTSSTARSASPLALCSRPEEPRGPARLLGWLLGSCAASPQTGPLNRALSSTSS

[4] = biological target: Beta-1 adrenergic receptor (Homo sapiens) (UniProt P08588); settings: Compound concentration 10.0 uM
Beta-1 adrenergic receptor (Homo sapiens), sequence (P08588 whole entry, looked up): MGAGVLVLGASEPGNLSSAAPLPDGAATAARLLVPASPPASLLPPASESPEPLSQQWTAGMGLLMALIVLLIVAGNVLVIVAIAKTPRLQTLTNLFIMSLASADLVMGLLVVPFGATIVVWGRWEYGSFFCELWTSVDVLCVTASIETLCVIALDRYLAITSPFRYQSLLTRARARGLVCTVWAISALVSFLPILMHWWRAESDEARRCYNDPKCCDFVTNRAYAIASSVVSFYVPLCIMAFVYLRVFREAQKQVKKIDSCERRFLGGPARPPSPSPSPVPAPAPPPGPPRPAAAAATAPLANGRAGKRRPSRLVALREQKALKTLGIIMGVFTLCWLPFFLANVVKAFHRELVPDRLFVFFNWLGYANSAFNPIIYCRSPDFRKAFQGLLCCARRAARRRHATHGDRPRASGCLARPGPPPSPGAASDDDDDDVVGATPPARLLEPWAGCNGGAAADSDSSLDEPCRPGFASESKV

[5] = biological target: D(2) dopamine receptor (Homo sapiens) (UniProt P14416); settings: Compound concentration 10.0 uM
D(2) dopamine receptor (Homo sapiens), sequence (P14416 whole entry): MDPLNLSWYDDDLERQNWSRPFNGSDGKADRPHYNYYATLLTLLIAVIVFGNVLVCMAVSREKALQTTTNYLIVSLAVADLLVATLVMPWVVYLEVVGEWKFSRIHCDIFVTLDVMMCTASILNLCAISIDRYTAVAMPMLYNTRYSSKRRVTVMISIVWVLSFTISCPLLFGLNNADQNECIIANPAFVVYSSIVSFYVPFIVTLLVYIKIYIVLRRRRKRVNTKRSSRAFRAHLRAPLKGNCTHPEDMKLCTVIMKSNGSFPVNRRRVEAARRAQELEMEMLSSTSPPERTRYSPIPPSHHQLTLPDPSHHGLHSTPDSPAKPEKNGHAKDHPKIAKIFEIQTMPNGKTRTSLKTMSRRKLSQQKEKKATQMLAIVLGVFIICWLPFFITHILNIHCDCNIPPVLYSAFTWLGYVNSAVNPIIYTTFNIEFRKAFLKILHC

[6] = biological target: GABA-A receptor; anion channel (Rattus norvegicus) (UniProt O09028+P15431+P18506+P18508+P19969+P20236+P23574+P23576+P28471+P28473+P30191+P62813+P63079+P63138+Q91ZM7+Q9ES14); settings: Compound concentration 10.0 uM
[7] = biological target: T2, Muscarinic acetylcholine receptor M2 (Homo sapiens) (UniProt P08172); settings: Compound concentration 10.0 uM
T2 sequence (whole entry): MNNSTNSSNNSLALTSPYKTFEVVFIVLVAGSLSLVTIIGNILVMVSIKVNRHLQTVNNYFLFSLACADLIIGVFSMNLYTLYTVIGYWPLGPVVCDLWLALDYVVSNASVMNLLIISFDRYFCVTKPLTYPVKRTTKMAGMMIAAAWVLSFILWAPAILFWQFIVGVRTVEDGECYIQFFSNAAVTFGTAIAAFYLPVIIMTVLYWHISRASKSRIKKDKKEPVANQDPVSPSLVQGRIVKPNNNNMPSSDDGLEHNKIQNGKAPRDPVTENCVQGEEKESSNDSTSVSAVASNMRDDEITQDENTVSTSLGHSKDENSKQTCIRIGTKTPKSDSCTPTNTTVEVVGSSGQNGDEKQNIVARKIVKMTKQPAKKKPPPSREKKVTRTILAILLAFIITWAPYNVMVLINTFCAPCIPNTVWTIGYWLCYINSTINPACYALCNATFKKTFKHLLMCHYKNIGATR

[8] = biological target: Muscarinic acetylcholine receptor M3 (Homo sapiens) (UniProt P20309); settings: Compound concentration 10.0 uM
Muscarinic acetylcholine receptor M3 (Homo sapiens), sequence (P20309 whole entry, looked up): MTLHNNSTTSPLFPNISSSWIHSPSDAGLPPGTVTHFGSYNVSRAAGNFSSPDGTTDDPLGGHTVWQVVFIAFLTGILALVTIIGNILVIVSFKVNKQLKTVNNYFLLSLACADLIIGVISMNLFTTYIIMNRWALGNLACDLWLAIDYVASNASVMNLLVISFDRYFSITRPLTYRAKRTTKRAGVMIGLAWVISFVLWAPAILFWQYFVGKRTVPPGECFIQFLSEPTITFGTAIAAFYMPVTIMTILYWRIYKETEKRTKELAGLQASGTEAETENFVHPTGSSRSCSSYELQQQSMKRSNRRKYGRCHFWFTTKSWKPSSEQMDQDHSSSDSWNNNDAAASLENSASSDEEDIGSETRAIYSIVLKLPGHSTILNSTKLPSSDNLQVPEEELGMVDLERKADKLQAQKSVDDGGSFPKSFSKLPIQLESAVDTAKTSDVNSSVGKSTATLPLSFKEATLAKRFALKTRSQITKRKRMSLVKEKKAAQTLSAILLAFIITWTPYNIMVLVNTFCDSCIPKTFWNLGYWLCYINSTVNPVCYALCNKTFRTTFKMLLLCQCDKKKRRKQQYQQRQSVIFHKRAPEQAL

[9] = biological target: Purinergic P2Y (Rattus norvegicus) (UniProt O35811+Q9EPX4+P49651+Q63371+P41232+O35881+Q6GUG4); settings: Compound concentration 10.0 uM

Measured: inhibition

Sigma non-opioid intracellular receptor 1 (Homo sapiens), sequence (Q99720 whole entry): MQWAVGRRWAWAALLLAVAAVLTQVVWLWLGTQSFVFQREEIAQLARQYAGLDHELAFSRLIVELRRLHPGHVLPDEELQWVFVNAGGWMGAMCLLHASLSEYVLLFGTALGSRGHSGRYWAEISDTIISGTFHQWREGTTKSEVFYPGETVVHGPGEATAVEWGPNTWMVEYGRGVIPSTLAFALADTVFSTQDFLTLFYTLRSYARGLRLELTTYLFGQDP
B1 bradykinin receptor (Homo sapiens), sequence (P46663 whole entry): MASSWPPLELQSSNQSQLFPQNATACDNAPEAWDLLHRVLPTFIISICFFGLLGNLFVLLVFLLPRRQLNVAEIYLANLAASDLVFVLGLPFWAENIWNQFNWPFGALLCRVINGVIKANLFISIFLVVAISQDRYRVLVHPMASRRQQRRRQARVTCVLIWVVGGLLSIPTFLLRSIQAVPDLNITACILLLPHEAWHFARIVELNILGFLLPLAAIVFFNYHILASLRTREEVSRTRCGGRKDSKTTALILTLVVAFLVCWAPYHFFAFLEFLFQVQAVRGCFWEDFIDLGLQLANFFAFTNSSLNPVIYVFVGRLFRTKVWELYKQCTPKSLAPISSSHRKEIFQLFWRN

Cc1c(N2CCNCC2)nc2ccc(Br)cc2c1C(=O)NC[C@H](CCC(=O)O)c1ccccc1Cl [BAY-403]
inactive: [1] 36.5%

Cc1c(N2CCCC2)nc2ccc(Br)cc2c1C(=O)NC[C@H](CCC(=O)O)c1ccccc1Cl [BAY-6672]
inactive: [2] 7% | Oryctolagus cuniculus 25% | [3]; Compound concentration 0.001 uM 3% | [3]; Compound concentration 0.01 uM 2% | [3]; Compound concentration 0.1 uM -3% | [3]; Compound concentration 1.0 uM -6% | [3]; Compound concentration 10.0 uM 19% | [4] 3% | [5] 6% | [6] 6% | [7] 3% | [8] 8% | [9] 5%
